Columns and labels:
AmGSTF1 [1] = test: Thermal shift assay; type: binding, Alopecurus myosuroides; settings: difference in melting temperature compared to no ligand
AmGSTF1 [2] = test: CDNB assay: inhibition of AmGSTF1-catalysed glutathionylation of CDNB; type: biochemical, Alopecurus myosuroides; settings: for CDNB Assay % Inhibition: three replicate measurements

Row | SMILES | Thermal Shift Assay ∆Tm (AmGSTF1 [1]; 1 µM) | Thermal Shift Assay ∆Tm (AmGSTF1 [1]; 10 µM) | Thermal Shift Assay ∆Tm (AmGSTF1 [1]; 100 µM) | CDNB Assay % Inhibition (AmGSTF1 [2]; 10 µM compound) [%] | CDNB Assay % Inhibition (AmGSTF1 [2]; 100 µM compound) [%] | Inhibitory activity toward AmGSTF1 in the CDNB assay (in words) (AmGSTF1 [2]) | CDNB Assay % Inhibition (AmGSTF1 [2]; 1 µM compound) [%]
1 | COc1cccc(-c2cc(=O)c3c(OC)cc(OC)cc3o2)c1 [18f] | 0.33 | 0.2 | -0.17 | 15 | 79 |  | 
2 | COc1ccc(-c2coc3cc(O)ccc3c2=O)cc1 [compound 6, reference compound] |  |  |  |  | 41 |  | 
3 | COc1cc(OC)c2c(=O)cc(C(=O)Nc3ccc(C)cc3)oc2c1 [16c] | 0.20 | 0.10 | 0.33 | 33 | 64 |  | 
4 | Oc1cc(O)c2c(c1)OC(c1ccc(O)c(O)c1)C(O)C2 (centres unmarked) [compound 10, catechin, reference compound] |  |  |  |  | 0 | no inhibition | 
5 | COc1cc(OC)c2c(=O)cc(N3CCN(C)CC3)oc2c1 [17a] | 0 | -0.03 | 0.20 |  | 16 |  | 
6 | COc1cc(OC)c2c(=O)cc(-c3ccccc3C)oc2c1 [18j] | -0.13 | -0.03 | -0.03 | 9 | 36 |  | 
7 | CCCCC(=O)NCCCCC(Oc1cc(OC)cc2oc(-c3ccccc3)cc(=O)c12)C(=O)O (centres unmarked) [compound 52] | 0.13 | 0.30 | 1.10 | 39 |  |  | 6
8 | COc1ccc(CNc2cc(O)c3c(=O)cc(-c4ccccc4)oc3c2)cc1 [compound 36] |  |  |  |  | 45 |  | 
9 | Cc1cc(=O)c2c(O)cc(O)cc2o1 [compound 12] |  |  |  |  | 63 | reduced inhibitory activity | 
10 | O=c1cc(-c2ccccc2)oc2cc(N3CCCCC3)cc(O)c12 [compound 38] |  |  |  |  | 88 |  | 
11 | O=c1cc(-c2ccccc2)oc2ccccc12 [compound 7, reference compound] | 0.3 | 0.0 | -0.2 |  | 14 |  | 
12 | CCc1ccc(-c2cc(=O)c3c(OC)cc(OC)cc3o2)cc1 [18e] |  | 0.10 | 0 | 11 | 80 |  | 
13 | COc1cc(OC)c2c(=O)cc(-c3ccncc3)oc2c1 [18m] | 0.23 | 0.27 | 0.23 | 10 | 50 |  | 
14 | O=c1cc(-c2ccccc2)oc2cc(N3CCOCC3)cc(O)c12 [compound 39] |  |  |  | 56 | 100 |  | 
15 | CCCCCOc1cc(O)c2c(=O)cc(-c3ccccc3)oc2c1 [compound 33] |  |  |  |  | 87 |  | 
16 | O=c1cc(-c2ccccc2)oc2cc(OCC3CC3)cc(O)c12 [compound 31] |  |  |  |  | 76 |  | 
17 | O=c1cc(-c2ccccc2)oc2cc(O)cc(O)c12 [compound 2, 5,7-dihydroxyflavone, reference compound] | 0.1 | 0.1 | 0.2 | 47 | 96 |  | 
18 | CCCCCCCCCCC(Oc1cc(OC)cc2oc(-c3ccccc3)cc(=O)c12)C(=O)O (centres unmarked) [compound 45] | 0.30 | 0.23 | 1.17 | 99 | 100 |  | 71
19 | O=C1c2c(O)cc(O)cc2O[C@H](c2ccc(O)c(O)c2)[C@H]1O [compound 8, reference compound] |  |  |  |  | 18 |  | 
20 | COc1cc(OC)c2c(=O)cc(N3CCOCC3)oc2c1 [17b] | 0.06 | 0.23 | 0.20 | 0 | 37 |  | 
21 | COc1cc(OC)c2c(=O)cc(-c3ccn[nH]3)oc2c1 [compound 24] | -0.30 | -0.07 | -0.03 | 6 | 59 |  | 
22 | COc1cc(OC(Cc2ccccc2)C(=O)O)c2c(=O)cc(-c3ccccc3)oc2c1 (centres unmarked) [compound 50] |  |  |  |  |  |  | 8
23 | COc1cc(OC)c2c(=O)cc(C(=O)Nc3ccccc3)oc2c1 [16a] | 0.17 | 0.03 | 0.03 | 26 | 49 |  | 
24 | COc1cc(OC)c2c(=O)cc(-c3ccccc3)oc2c1 [18a] | 0.23 | 0.33 | 0.3 | 20 | 70 |  | 
25 | O=c1cc(-c2ccccc2)oc2cc(OCC3CCCCO3)cc(O)c12 (centres unmarked) [compound 34] |  |  |  |  | 28 |  | 

Row | SMILES | Thermal Shift Assay ∆Tm (AmGSTF1 [1]; 1 µM) | Thermal Shift Assay ∆Tm (AmGSTF1 [1]; 10 µM) | Thermal Shift Assay ∆Tm (AmGSTF1 [1]; 100 µM) | CDNB Assay % Inhibition (AmGSTF1 [2]; 10 µM compound) [%] | CDNB Assay % Inhibition (AmGSTF1 [2]; 100 µM compound) [%] | Inhibitory activity toward AmGSTF1 in the CDNB assay (in words) (AmGSTF1 [2]) | CDNB Assay % Inhibition (AmGSTF1 [2]; 1 µM compound) [%]
26 | Br.COC(=O)C(CCCCN)Oc1cc(OC)cc2oc(-c3ccccc3)cc(=O)c12 (centres unmarked) [compound 51] | 0.20 | 0.43 | 0.57 | 25 |  |  | 
27 | CC(=O)Oc1cc(O)c2c(=O)cc(-c3ccccc3)oc2c1 [compound 28] |  |  |  |  | 10 |  | 
28 | COc1cc(OC)c2c(=O)cc(-c3ccnn3C)oc2c1 [compound 25] | 0 | -0.03 | -0.10 | 9 | 58 |  | 
29 | COc1ccc(-c2cc(=O)c3c(OC)cc(OC)cc3o2)cc1 [18c] | 0.23 | 0.17 | 0.70 | 15 | 100 |  | 
30 | COc1cc(OC)c2c(=O)cc(-c3ccc(OC)c(OC)c3)oc2c1 [18g] | 0.30 | -0.03 | 0.17 | 11 | 100 |  | 
31 | COc1cc(OC)c2c(=O)cc(-c3cnnc(C)c3)oc2c1 [18n] | -0.07 | -0.13 | -0.33 | 8 | 64 |  | 
32 | O=c1cc(-c2ccccc2)oc2cc(N3CCCC3)cc(O)c12 [compound 37] |  |  |  |  | 46 |  | 
33 | O=c1cc(-c2ccccc2)oc2cc(OCc3ccccc3)cc(O)c12 [compound 30] |  |  |  |  | 53 |  | 
34 | COc1cc(NC(=O)c2cc(=O)c3c(OC)cc(OC)cc3o2)cc(OC)c1 [16b] | 0.20 | 0.50 | 0.13 | 19 | 56 |  | 
35 | O=C(Oc1cc(O)c2c(=O)cc(-c3ccccc3)oc2c1)c1ccccc1 [compound 27] |  |  |  |  | 4 |  | 
36 | COc1cc(OC(C(=O)O)c2ccccc2)c2c(=O)cc(-c3ccccc3)oc2c1 (centres unmarked) [compound 48] |  |  |  |  |  |  | 16
37 | CCCCCC(Oc1cc(OC)cc2oc(-c3ccccc3)cc(=O)c12)C(=O)O (centres unmarked) [compound 42] | 0.17 | 0.43 | 2.33 | 69 |  |  | 4
38 | COc1cc(OC(C)C(=O)O)c2c(=O)cc(-c3ccccc3)oc2c1 (centres unmarked) [compound 41] | 0.20 | 0.20 | 1.10 | 14 |  |  | 
39 | COc1cc(OC)c2c(=O)cc(-c3ccc(S(C)(=O)=O)cc3)oc2c1 [18l] | 0.13 | 0.20 | 0.30 | 14 | 35 |  | 
40 | COC(=O)c1ccc(-c2cc(=O)c3c(OC)cc(OC)cc3o2)cc1 [18i] | 0.27 | 0.30 | 0.27 | 20 | 58 |  | 
41 | COc1cc(OC(C(=O)O)c2ccc(Cl)cc2)c2c(=O)cc(-c3ccccc3)oc2c1 (centres unmarked) [compound 49] |  |  |  |  |  |  | 27
42 | CCCCCC(=O)Oc1cc(O)c2c(=O)cc(-c3ccccc3)oc2c1 [compound 29] |  |  |  |  | 6 |  | 
43 | CCCCCCCCCCCCC(Oc1cc(OC)cc2oc(-c3ccccc3)cc(=O)c12)C(=O)O (centres unmarked) [compound 46] | 0.20 | 0.73 | 1.43 | 90 | 100 |  | 75
44 | COc1cc(OC)c2c(=O)cc(-c3nnn[nH]3)oc2c1 [compound 22] | -0.23 | -0.27 | -0.43 | 13 | 53 |  | 
45 | O=c1cc(-c2ccccc2)oc2cc(OCC3CCCC3)cc(O)c12 [compound 32] |  |  |  |  | 80 |  | 
46 | COc1cc(OC)c2c(=O)cc(-c3nnc(C)o3)oc2c1 [compound 19] | -0.10 | -0.17 | -0.27 | 8 | 53 |  | 
47 | O=c1cc(-c2ccccc2)oc2cc(OCc3cccnc3)cc(O)c12 [compound 35] |  |  |  |  | 87 |  | 
48 | COc1cc(OCC(=O)O)c2c(=O)cc(-c3ccccc3)oc2c1 [compound 40] |  |  |  |  |  |  | 23
49 | COc1cc(OC(C(=O)O)C(C)C)c2c(=O)cc(-c3ccccc3)oc2c1 (centres unmarked) [compound 47] |  |  |  |  |  |  | 7
50 | O=c1c(-c2ccc(O)cc2)coc2cc(O)cc(O)c12 [compound 5, reference compound] |  |  |  |  | 47 |  | 
